System: panel of 484 cancer cell lines
Experiment: PRISM cancer cell line profiling, 5 days
Format: cell-based
Parameters: AUC: unit not given beside the values
Description: Cancer cell line profiling was performed using the Broad’s PRISM platform. Cell treatment and data analysis were performed as described in Yu et al[42]. Raw Luminex signal was converted to AUC values for each cell line as described. The resulting AUC profile for each compound was modeled against DepMap using the limma package in R[71]. Because hotspot mutation analysis was performed against DepMap, TP53 annotations in Fig. 6c,d are directly from DepMap.

## CN1CCN(CCC(=O)Nc2ccc3c(=O)n(CC4(O)CCN(C(=O)[C@@H](CCCNC(=O)c5ccc6c(Cl)c7c(nc6c5)CCCC7)Cc5ccccc5)CC4)cnc3c2)CC1 [XL177A]
HCC1438_LUNG
  AUC: 0.7615
HCC1588_LUNG
  AUC: 1.23
HCC1806_BREAST
  AUC: 0.9812
HCC1937_BREAST
  AUC: 1.015
HCC4006_LUNG
  AUC: 0.9625
HCT15_LARGE_INTESTINE
  AUC: 1.19
HCT116_LARGE_INTESTINE
  AUC: 0.9421
HDQP1_BREAST
  AUC: 0.9973
HEC1A_ENDOMETRIUM
  AUC: 1.131
HEC1B_ENDOMETRIUM
  AUC: 0.9267
HEC6_ENDOMETRIUM
  AUC: 0.9564
HEC59_ENDOMETRIUM
  AUC: 1.149
HEC108_ENDOMETRIUM
  AUC: 0.8058
HEC151_ENDOMETRIUM
  AUC: 0.7769
HEC251_ENDOMETRIUM
  AUC: 0.792
HEC265_ENDOMETRIUM
  AUC: 0.8327
HEP3B217_LIVER
  AUC: 1.13
HEYA8_OVARY
  AUC: 0.9929
HGC27_STOMACH
  AUC: 1.014
HLF_LIVER
  AUC: 1.111
HMC18_BREAST
  AUC: 0.9153
HOS_BONE
  AUC: 1.0422
HPAC_PANCREAS
  AUC: 1.477
HS294T_SKIN
  AUC: 0.8762
HS618T_LUNG
  AUC: 0.9543
HS729_SOFT_TISSUE
  AUC: 0.9806
HS766T_PANCREAS
  AUC: 0.877
HS852T_SKIN
  AUC: 1.359
HS939T_SKIN
  AUC: 1.069
HS944T_SKIN
  AUC: 1.047
HSC2_UPPER_AERODIGESTIVE_TRACT
  AUC: 0.968
HSC3_UPPER_AERODIGESTIVE_TRACT
  AUC: 0.8381
HT29_LARGE_INTESTINE
  AUC: 1.3
HT55_LARGE_INTESTINE
  AUC: 1.168
HT144_SKIN
  AUC: 1.076
HT1080_SOFT_TISSUE
  AUC: 1.011
HT1376_URINARY_TRACT
  AUC: 1.127
HUCCT1_BILIARY_TRACT
  AUC: 0.9724
HUH6_LIVER
  AUC: 0.8768
HUH7_LIVER
  AUC: 1.027
HUH28_BILIARY_TRACT
  AUC: 1.165
HUPT3_PANCREAS
  AUC: 1.003
IALM_LUNG
  AUC: 0.9313
IGR1_SKIN
  AUC: 0.998
IGR37_SKIN
  AUC: 0.9905
IGROV1_OVARY
  AUC: 0.7266
IM95_STOMACH
  AUC: 0.6846
IPC298_SKIN
  AUC: 0.897
ISHIKAWAHERAKLIO02ER_ENDOMETRIUM
  AUC: 1.0984
ISTMES1_PLEURA
  AUC: 0.9912
ISTMES2_PLEURA
  AUC: 1.073
J82_URINARY_TRACT
  AUC: 1.012
JHH1_LIVER
  AUC: 0.7875
JHH4_LIVER
  AUC: 1.303
JHH5_LIVER
  AUC: 1.313
JHH6_LIVER
  AUC: 1.146
JHH7_LIVER
  AUC: 1.089
JHOC5_OVARY
  AUC: 0.9299
JHOM1_OVARY
  AUC: 1.1
JHOS2_OVARY
  AUC: 1.084
JHUEM2_ENDOMETRIUM
  AUC: 0.6526
JIMT1_BREAST
  AUC: 0.9668
JMSU1_URINARY_TRACT
  AUC: 1.405
K029AX_SKIN
  AUC: 0.9501
KALS1_CENTRAL_NERVOUS_SYSTEM
  AUC: 0.9126
KELLY_AUTONOMIC_GANGLIA
  AUC: 1.086
KMBC2_URINARY_TRACT
  AUC: 0.7761
KMRC1_KIDNEY
  AUC: 1.1591
KMRC3_KIDNEY
  AUC: 1.033
KMRC20_KIDNEY
  AUC: 1.2
KNS42_CENTRAL_NERVOUS_SYSTEM
  AUC: 1.183
KNS60_CENTRAL_NERVOUS_SYSTEM
  AUC: 1.16
KNS62_LUNG
  AUC: 0.8251
KNS81_CENTRAL_NERVOUS_SYSTEM
  AUC: 0.9475
KP2_PANCREAS
  AUC: 1.066
KP3_PANCREAS
  AUC: 1.01
KP4_PANCREAS
  AUC: 0.8954
KPL1_BREAST
  AUC: 0.9211
KU1919_URINARY_TRACT
  AUC: 0.8697
KYSE30_OESOPHAGUS
  AUC: 0.8748
KYSE70_OESOPHAGUS
  AUC: 0.8646
KYSE140_OESOPHAGUS
  AUC: 1.147
KYSE150_OESOPHAGUS
  AUC: 0.9935
KYSE180_OESOPHAGUS
  AUC: 1.01
KYSE270_OESOPHAGUS
  AUC: 0.9741
KYSE410_OESOPHAGUS
  AUC: 1.031
KYSE510_OESOPHAGUS
  AUC: 0.9351
KYSE520_OESOPHAGUS
  AUC: 0.8676
L33_PANCREAS
  AUC: 1.236
LC1SQSF_LUNG
  AUC: 1.124
LCLC103H_LUNG
  AUC: 1.104
LI7_LIVER
  AUC: 1.1644
LK2_LUNG
  AUC: 1.455
LMSU_STOMACH
  AUC: 0.9257
LN18_CENTRAL_NERVOUS_SYSTEM
  AUC: 0.8921
LN229_CENTRAL_NERVOUS_SYSTEM
  AUC: 1.185
LNCAPCLONEFGC_PROSTATE
  AUC: 0.7244
LOUNH91_LUNG
  AUC: 1.175
LOVO_LARGE_INTESTINE
  AUC: 1.153
LOXIMVI_SKIN
  AUC: 0.9286
LS180_LARGE_INTESTINE
  AUC: 0.8962
LS411N_LARGE_INTESTINE
  AUC: 1.328
LS513_LARGE_INTESTINE
  AUC: 1.158
LS1034_LARGE_INTESTINE
  AUC: 1.385
LU99_LUNG
  AUC: 0.9975
LUDLU1_LUNG
  AUC: 1.119
LXF289_LUNG
  AUC: 0.9272
MALME3M_SKIN
  AUC: 0.9568
MCAS_OVARY
  AUC: 0.987
MCF7_BREAST
  AUC: 0.9375
MDAMB175VII_BREAST
  AUC: 1.118
MDAMB231_BREAST
  AUC: 0.9911
MDAMB435S_SKIN
  AUC: 0.9274
MDAMB436_BREAST
  AUC: 0.9312
MDAMB468_BREAST
  AUC: 0.902
MELHO_SKIN
  AUC: 0.9951
MELJUSO_SKIN
  AUC: 0.9827
MESSA_SOFT_TISSUE
  AUC: 0.5444
MEWO_SKIN
  AUC: 0.9674
MFE280_ENDOMETRIUM
  AUC: 1.202
MFE296_ENDOMETRIUM
  AUC: 1.106
MFE319_ENDOMETRIUM
  AUC: 1.097
